Data taken from US20250171438A1 (Agios Pharmaceuticals, Inc., priority 2022, published 2025).

Molecular target: T1, human PAH with the R408W mutation (Homo sapiens, UniProt P00439, R408W)
T1 construct: expressed in transfected cells
T1 sequence (P00439 1-452 R408W): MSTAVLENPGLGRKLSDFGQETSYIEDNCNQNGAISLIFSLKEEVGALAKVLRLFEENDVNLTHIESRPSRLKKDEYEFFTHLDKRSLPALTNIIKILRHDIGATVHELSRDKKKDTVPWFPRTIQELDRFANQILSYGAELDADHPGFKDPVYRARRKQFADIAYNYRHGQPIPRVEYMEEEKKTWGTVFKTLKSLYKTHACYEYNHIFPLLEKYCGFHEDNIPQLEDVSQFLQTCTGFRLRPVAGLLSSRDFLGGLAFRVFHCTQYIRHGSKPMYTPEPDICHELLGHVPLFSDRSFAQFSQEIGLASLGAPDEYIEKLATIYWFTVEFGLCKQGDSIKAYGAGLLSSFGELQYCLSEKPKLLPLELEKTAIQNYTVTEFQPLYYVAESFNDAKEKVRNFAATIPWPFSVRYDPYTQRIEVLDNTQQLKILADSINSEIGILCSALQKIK
Experiment: Cell Based Phenylalanine Flux Assay
Details: A375 cells expressing human R408W PAH; 24 hrs with compound; 13C-Tyrosine by LC-MS; average where tested multiple times; read-out: AC50

AC50 [µM] | Compound
> 5 | O=C(c1nnc(C2CNC2)o1)N1CCc2[nH]cnc2C1c1nc2ccccc2s1 (stereo not shown)
1 to 5 | COCc1nnc(C(=O)N2CCc3[nH]cnc3C2c2nc3ccccc3s2)o1 (stereo not shown)
1 to 5 | Cn1ncc(C(=O)N2CCc3[nH]cnc3C2c2nc3c(F)cccc3s2)c1Cl (stereo not shown)
> 5 | Cc1nc(C(=O)N2CCc3[nH]cnc3C2c2nc3ccccc3s2)no1 (stereo not shown)
1 to 5 | N#Cc1n[nH]cc1C(=O)N1CCc2[nH]cnc2C1c1nc2ccccc2s1 (stereo not shown)
1 to 5 | CN(C)CCn1cc(C(=O)N2CCc3[nH]cnc3C2c2nc3ccccc3s2)c(C#N)n1 (stereo not shown)
> 5 | CN(C)CCn1ncc(C(=O)N2CCc3[nH]cnc3C2c2nc3ccccc3s2)c1C#N (stereo not shown)
1 to 5 | Cn1ncc(C(=O)N2CCc3[nH]cnc3C2c2nc3c(F)cccc3s2)c1C#N (stereo not shown)
1 to 5 | O=C(C1CN(CC(F)(F)F)C1)N1CCc2[nH]cnc2C1c1nc2c(F)cccc2s1 (stereo not shown)
1 to 5 | Cc1cc(C(=O)N2CCc3[nH]cnc3C2c2nc3c(F)cccc3s2)n(-c2ccc(F)cc2)n1 (stereo not shown)
1 to 5 | O=C(c1ccn(-c2ccccn2)n1)N1CCc2[nH]cnc2C1c1nc2c(F)cccc2s1 (stereo not shown)
1 to 5 | O=C(C1CN(c2ccccn2)C1)N1CCc2[nH]cnc2C1c1nc2c(F)cccc2s1 (stereo not shown)
1 to 5 | Cn1nc(COC(F)(F)F)cc1C(=O)N1CCc2[nH]cnc2C1c1nc2c(F)cccc2s1 (stereo not shown)
1 to 5 | Cn1nc(-c2ccccn2)cc1C(=O)N1CCc2[nH]cnc2C1c1nc2c(F)cccc2s1 (stereo not shown)
1 to 5 | Cn1ncc(C(=O)N2CCc3[nH]cnc3C2c2nc3c(F)cccc3s2)c1C(F)(F)F (stereo not shown)
1 to 5 | COCc1ncc(C(=O)N2CCc3[nH]cnc3C2c2nc3c(F)cccc3s2)o1 (stereo not shown)
1 to 5 | Cn1ncc(C(=O)N2CCc3[nH]cnc3C2c2nc3c(F)cccc3s2)n1 (stereo not shown)
1 to 5 | [2H]C([2H])([2H])OCc1cc(C(=O)N2CCc3[nH]cnc3C2c2nc3c(F)cccc3s2)n(C)n1 (stereo not shown)
1 to 5 | COCc1cc(C(=O)N2CCc3[nH]cnc3C2c2nc3c(F)cccc3s2)n(C)n1 (stereo not shown)
1 to 5 | COCc1cc(C(=O)N2CCc3[nH]cnc3C2c2nc3c(F)cccc3s2)[nH]n1 (stereo not shown)
1 to 5 | O=C(c1nnc(-c2ccc(C(F)(F)F)cc2)o1)N1CCc2[nH]cnc2C1c1nc2c(F)cccc2s1 (stereo not shown)
1 to 5 | CN(C)Cc1nc(C#N)c(C(=O)N2CCc3[nH]cnc3C2c2nc3ccccc3s2)o1 (stereo not shown)
1 to 5 | NC(=O)c1ncoc1C(=O)N1CCc2[nH]cnc2C1c1nc2ccccc2s1 (stereo not shown)

AC50 [µM] | Compound
1 to 5 | N#Cc1nc(NCC(F)(F)F)oc1C(=O)N1CCc2[nH]cnc2C1c1nc2ccccc2s1 (stereo not shown)
1 to 5 | Cn1nc(N)cc1C(=O)N1CCc2[nH]cnc2C1c1nc2c(F)cccc2s1 (stereo not shown)
1 to 5 | Cn1nc(C#N)cc1C(=O)N1CCc2[nH]cnc2C1c1nc2c(F)cccc2s1 (stereo not shown)
1 to 5 | Cn1nc(C(N)=O)cc1C(=O)N1CCc2[nH]cnc2C1c1nc2c(F)cccc2s1 (stereo not shown)
1 to 5 | O=C(c1nnc(CCNC2CC2)o1)N1CCc2[nH]cnc2C1c1nc2ccccc2s1 (stereo not shown)
1 to 5 | CN(C)CCc1nnc(C(=O)N2CCc3[nH]cnc3C2c2nc3ccccc3s2)o1 (stereo not shown)
1 to 5 | Cn1nc(CO)cc1C(=O)N1CCc2[nH]cnc2C1c1nc2c(F)cccc2s1 (stereo not shown)
1 to 5 | CN(C)Cc1nc(C(=O)N2CCc3[nH]cnc3C2c2nc3ccccc3s2)no1 (stereo not shown)
1 to 5 | CN(C)Cc1ncc(C(=O)N2CCc3[nH]cnc3C2c2nc3ccccc3s2)o1 (stereo not shown)
> 5 | CN(C)Cc1cc(C(=O)N2CCc3[nH]cnc3C2c2nc3c(F)cccc3s2)n(C)n1 (stereo not shown)
1 to 5 | COC(=O)N1CC(C(=O)N2CCc3[nH]cnc3C2c2nc3ccccc3s2)C1 (stereo not shown)
1 to 5 | COC(=O)N1CC(C(=O)N2CCc3[nH]cnc3C2c2nc3c(F)cccc3s2)C1 (stereo not shown)
> 5 | Cc1nc(C(C)(C)O)oc1C(=O)N1CC2(CC2)c2[nH]cnc2C1c1nc2ccccc2s1 (stereo not shown) [listing 1 of 2 here]
> 5 | O=C(c1cnco1)N1CC2(CC2)c2[nH]cnc2C1c1nc2ccccc2s1 (stereo not shown) [listing 1 of 2 here]
> 5 | Cc1nc(-c2ccccn2)oc1C(=O)N1CC2(CC2)c2[nH]cnc2C1c1nc2ccccc2s1 (stereo not shown)
> 5 | Cc1ncoc1C(=O)N1CC2(CC2)c2[nH]cnc2C1c1nc2c(F)cccc2s1 (stereo not shown) [listing 1 of 2 here]
> 5 | O=C(c1ocnc1CO)N1CC2(CC2)c2[nH]cnc2C1c1nc2ccccc2s1 (stereo not shown) [listing 1 of 2 here]
> 5 | CN(C)Cc1ccc2c(C(=O)N3CC4(CC4)c4[nH]cnc4C3c3nc4ccccc4s3)cnn2c1 (stereo not shown) [listing 1 of 2 here]
1 to 5 | Cc1nc(C(C)(C)O)oc1C(=O)N1CC2(CC2)c2[nH]cnc2C1c1nc2ccccc2s1 (stereo not shown) [listing 2 of 2 here]
1 to 5 | O=C(c1cnco1)N1CC2(CC2)c2[nH]cnc2C1c1nc2ccccc2s1 (stereo not shown) [listing 2 of 2 here]
1 to 5 | Cc1ncoc1C(=O)N1CC2(CC2)c2[nH]cnc2C1c1nc2c(F)cccc2s1 (stereo not shown) [listing 2 of 2 here]
1 to 5 | O=C(c1ocnc1CO)N1CC2(CC2)c2[nH]cnc2C1c1nc2ccccc2s1 (stereo not shown) [listing 2 of 2 here]
1 to 5 | CN(C)Cc1ccc2c(C(=O)N3CC4(CC4)c4[nH]cnc4C3c3nc4ccccc4s3)cnn2c1 (stereo not shown) [listing 2 of 2 here]
